Laboratory results taken from BigSolDB 2.1.

Cl.N=C(N=C(N)N)N1CCOCC1
solubility (mole fraction)
Details | 283.15 K | 293.15 K | 303.15 K | 313.15 K | 323.15 K
in acetone | 1.9e-05 | 3.3e-05 | 6.2e-05 | 0.000107 | 0.000186
in acetonitrile | 9.1e-05 | 0.000106 | 0.000117 | 0.000128 | 0.000149
in ethanol | 0.0023 | 0.00283 | 0.00356 | 0.00461 | 0.00615
in ethyl acetate | 7.7e-05 | 9.7e-05 | 0.000117 | 0.000138 | 0.000161
in isobutanol | 0.000621 | 0.000696 | 0.000915 | 0.00124 | 0.00157
in isopropanol | 0.000482 | 0.00062 | 0.00079 | 0.001 | 0.00124
in methanol | 0.013 | 0.0215 | 0.0268 | 0.0341 | 0.0423
in n-butanol | 0.000682 | 0.000834 | 0.00101 | 0.00137 | 0.00184
in n-pentanol | 0.00045 | 0.000545 | 0.00061 | 0.000729 | 0.000967
in n-propanol | 0.0011 | 0.00136 | 0.00161 | 0.00206 | 0.00279
in sec-butanol | 0.000297 | 0.000358 | 0.000445 | 0.000534 | 0.000732
in water | 0.0565 | 0.0653 | 0.0853 | 0.105 | 0.127
